The values below come from ChEMBL document CHEMBL1177693, “Antimalarials from nature” (Bioorg Med Chem, 2009).

In general, MIC refers to the lowest concentration found to suppress growth. Read a low MIC as greater potency. By IC50 is commonly meant the concentration that gives 50% inhibition. The EC50 is the concentration at which the effect is half-maximal. High values mean a less potent agent, low ones a more potent agent.

Converted amounts (≈) assume the structure as drawn.

One experiment concerns Plasmodium falciparum. Nature of the experiment: Antimalarial activity against Plasmodium falciparum. It is filed as functional, organism-based.
Settings: not given
For `C=C(COCc1ccc(Br)cc1)[C@@H]1CC[C@]2(C)CC[C@]3(C)[C@H](CC[C@@H]4[C@@]5(C)CC[C@H](OC(=O)CCCCCCC(N)=O)C(C)(C)[C@@H]5CC[C@]43C)[C@@H]12`, the “fold change (FC)” value worked out at 7.

Still in this experiment, the particulars now being: Plasmodium falciparum.
Consider `C=C(C)[C@@H]1CC[C@]2(C)CC[C@]3(C)[C@H](CC[C@@H]4[C@@]5(C)CC[C@H](O)C(C)(C)[C@@H]5CC[C@]43C)[C@@H]12` [LUPEOL], for which the MIC amounted to 13.1 µM (≈ 5.58 µg/mL). As to `CCCCCCCCCCCCCC1CC(=O)NCCCNCCCCNCCCN1` (stereo unspecified) [BUDMUNCHIAMINE L4], inhibition was half-maximal at 14 µM (IC50). `C[C@@]12C=C3OC[C@]4(C)C=CC(=O)[C@@](C)([C@@H]34)[C@@]13O[C@H]3C[C@@]1(C)[C@H](C3=CC(O)OC3=O)C[C@H]3O[C@@]321` (mixture of isomers) [TRICHIRUBINE A] registered an IC50 of 0.3 µg/mL. `C=C[C@@]12COC(=O)C(=C)[C@@H]1[C@H]1OC(=O)[C@@H](C)[C@@H]1[C@@H](OC(=O)C(=C)CO)C2` displayed an IC50 of 1.1 µg/mL. `COC1=C(OC)C(=O)C([C@H]2COc3c(cc(OC)c(OC)c3OC)C2)=CC1=O` [ABRUQUINONE B] yielded an IC50 of 1.5 µg/mL. Molecule `CC1=CC(=O)C[C@@H]2[C@@](C)(CC[C@H](C)CC(=O)O)[C@H](C)C(=O)C[C@@]12C` registered an IC50 of 4.3 µg/mL. As for `CC(O)c1cncc2c(=O)n3c(cc12)-c1[nH]c2ccc(O)cc2c1CC3` (stereo unspecified) [NAUCLEOFFICINE E], the midpoint of inhibition, the IC50, lay at 38.3 µM. Molecule `NC[C@H](Cl)[C@@H](O)c1c[nH]c(N)n1` [GIRACODAZOLE] came in with an IC50 of 0.077 µM. In turn, `Cc1cc(O)c2c(c1)[C@H]([C@H]1O[C@H](OC(=O)c3ccccc3)[C@@H](O)[C@@H](O)[C@@H]1O)c1cccc(O)c1C2=O` [UVEOSIDE] had an IC50 of 2.4 µM. Take `O=C1O[C@@H]2[C@@H](OC(=O)c3cc(O)c(O)c(O)c3-c3c1cc(O)c(O)c3O)[C@H](O)O[C@@H]1COC(=O)c3cc(O)c(O)c(O)c3-c3c(O)c(O)c4oc(=O)c5c(c(O)c(O)c6oc(=O)c3c4c65)-c3c(cc(O)c(O)c3O)C(=O)O[C@@H]21` (racemic) [PUNICALAGIN]: half-maximal inhibition (IC50) required 27.7 µg/mL. For the molecule `C=C1C2CC[C@@]3(C)[C@H](c4ccoc4)OC(=O)C[C@]13O[C@H]1CC(=O)C(C)(C)[C@H](C(O)C(=O)OC)[C@@]21C` (stereo partly specified) [6-HYDROXYANGOLENSIC ACID METHYL ESTER], the IC50 was above 20 µg/mL. In turn, `COc1cc2c(cc1O)[C@@H]1C[C@H](C[C@H]3CCCCN31)OC(=O)/C=C\c1ccc(O)c-2c1` gave an IC50 of 2.8 µg/mL. `CC1(C)C(=O)CC[C@]2(C)[C@H]3CC(O)[C@@H]4[C@@]5(C)CC[C@](O)(C(C)(C)O)[C@H]5[C@@H](O[C@H]5OC[C@@H](O)[C@@H](O)[C@@H]5O)C[C@@]4(C)[C@]3(C)CC[C@@H]12` (mixture of isomers) [GLINOSIDE A] returned an IC50 of 42.3 µg/mL. In turn, `COc1cc2c(cc1OC)[C@@H]1C[C@H](C[C@H]3CCCCN31)OC(=O)/C=C\c1ccc(O)c-2c1` [VERTINE] showed an IC50 of 4.76 µg/mL.

Take `CCCCCCCCCCCCCCCC1CC(=O)NCCCNCCCCNCCCN1` (stereo unspecified) [BUDMUNCHIAMINE L5]: inhibition was half-maximal at 15 µM (IC50). In the case of `CC1=CC(=O)[C@@H](O)[C@]2(C)[C@H]3[C@]4(O)OC[C@@]35[C@@H](C[C@@H]12)OC(=O)[C@H](O)[C@@]5(O)[C@@]1(CO1)[C@H]4O` [PASAKBUMIN B], the midpoint of inhibition, the IC50, lay at 0.0226 µg/mL. In turn, `COc1ccc2c(OC)c3c(C)cc(=O)[nH]c3c(OC)c2c1OC` gave an IC50 of 42.9 µM. For the molecule `C=CC(C)(C)c1cc2c(O)c3c(c(C(C)(C)C=C)c2oc1=O)OC(C)(C)C=C3` [CLAUSARIN], the IC50 worked out at 0.1 µg/mL. In turn, `CC(C)=CCc1cc(/C=C/C(=O)c2cc(CC=C(C)C)c(O)cc2O)ccc1O` [STIPULIN] yielded an IC50 of 5.13 µM. Turning to `Cc1cc(O)c2c(c1)[C@@H]([C@H]1O[C@H](OC(=O)c3ccccc3)[C@@H](O)[C@@H](O)[C@@H]1O)c1cccc(O)c1C2=O`, the IC50 turned out to be 2.4 µM. Consider `CO[C@H]1[C@@H](O)[C@H](O[C@H]2[C@@H](OC)C[C@H](O[C@H]3[C@@H](OC)C[C@@H](O[C@H]4CC[C@@]5(C)C(=CC[C@@H]6[C@@H]5C[C@@H](OC(=O)c5ccccc5)[C@]5(C)[C@@H]([C@H](C)OC(C)=O)CC[C@]65O)C4)O[C@@H]3C)O[C@@H]2C)O[C@H](C)[C@H]1O`, for which the IC50 was 6.25 µg/mL. On to `CC(=O)O[C@@H]1C(=O)c2c(O)cc(O)cc2O[C@@H]1c1ccc(O)cc1`, for which the IC50 was 24.3 µg/mL. As to `C=C1[C@@H](O)[C@@]2(O)OC[C@]34[C@H]2[C@@]2(C)[C@H](O)C(=O)C=C(C)[C@@H]2C[C@H]3OC(=O)[C@H](O)[C@@]14O` [EURYCOMANONE], half-maximal inhibition (IC50) was put at 0.04 µg/mL.

`C=C1C(=O)[C@@]23CC[C@H]4[C@@]5(C)CCC[C@@]4(OC5=O)[C@@]2(C)CC[C@]1(OC)C3`: the IC50 was determined as 0.54 µg/mL. `C[C@@H]1CC[C@H]2C(C)(C)[C@H](O)CC[C@]2(C)[C@@]12Cc1c(O)cc3c(c1O2)COC3=O` showed an IC50 of 0.15 µg/mL.

With `COc1cc2c(cc1O)CCN(C)[C@H]2Cc1ccc(Oc2c3c(cc(OC)c2OC)-c2c(OC)c(OC)c(O)c4c2[C@@H](C3)N(C)CC4)cc1`, the IC50 was found to be 0.0242 µg/mL. The same measure, in the same setting: next, `CC(C)=CCc1c(O)cc2oc3ccc4c(c3c(=O)c2c1O)C=CC(C)(C)O4` [CALOTHWAITESIXANTHONE]: 2.7 µg/mL; `CC1(C)CC[C@]2(C(=O)O)CC[C@]3(C)C(=CC[C@@H]4[C@@]5(C)CC[C@@H](O)C(C)(C)[C@@H]5CC[C@]43C)[C@@H]2C1`: 28.3 µM; `C=C1C(=O)O[C@@H]2/C=C(/CO)C3=CC(=O)[C@@](C)(C[C@@H](OC(=O)/C(C)=C\C)[C@@H]12)O3`: 0.3 µg/mL.

`C/C(=C\[C@@H](O)[C@H](O)[C@@H](C)C1=CC[C@@]2(C)C[C@@H]3[C@H](C)CC[C@@H]3/C(C(=O)O)=C\C[C@H]12)C(=O)O` [HALOROSELLINIC ACID]: the IC50 worked out at 13 µg/mL.

On to `O=C1OC(O)C(Br)=C1Br` (stereo unspecified) [MUCOBROMIC ACID], for which inhibition was half-maximal at 0.359 µg/mL (IC50). For the molecule `COc1ccc2cc1Oc1cc3c(cc1OC)CCN(C)[C@@H]3Cc1ccc(cc1)Oc1c(O)c(OC)cc3c1[C@@H](C2)N(C)CC3`, half-maximal inhibition (IC50) was put at 0.353 µM. Take `C=C(C)C(O)Cc1cc(C(=O)/C=C/c2ccc(O)c(CC=C(C)C)c2)c(O)cc1O` (stereo unspecified) [BARTERICIN A]: it took 2.15 µM to reach half-maximal inhibition (IC50).

`CC(=O)Oc1cc(C)c(OC(C)=O)c2c1[nH]c1ccccc12` yielded an IC50 of 1.79 µg/mL. Turning to `Cc1c(O)cc2c3c1OC(C)(C)CC3c1ccc(O)c(O)c1CC2` (stereo not drawn) [DEMETHYLRACEMOSOL], the EC50 was found to be 2 µg/mL (≈ 6.13 µM). In turn, `C=C1C([C@@]2(C)C=CC(=O)C(C)(C)[C@@H]2[C@H](OC(C)=O)C(=O)OC)CC[C@@]2(C)[C@H](c3ccoc3)OC(=O)C[C@]12O` (stereo partly specified) [DOMESTICULIDE B] had an IC50 of 3.2 µg/mL. Still for that read-out and setting: the same measure for `C=C1CC[C@@H]2[C@@](C)(COC(=O)/C=C/c3ccc(O)cc3)CCC[C@@]2(C)[C@@H]1CC[C@H](C)CC(=O)O`: 4.3 µg/mL; for `O=C1OC(O)C(Cl)=C1Cl` (stereo unspecified) [MUCOCHLORIC ACID]: 0.137 µg/mL; for `C/C1=C\[C@H]2O[C@](C)(CC[C@@H]2[C@@]2(C)CO2)[C@@H](O)CC/C(C)=C/CC1`: 15 µg/mL. On to `C=C(CO)[C@@]12O[C@@H]1[C@@]1(C)C(=CC2=O)CC[C@@H](O)[C@@H]1C`, for which a half-maximal response (EC50) required 0.32 µg/mL (≈ 1.21 µM).
